In ChEMBL document CHEMBL1124985, “A Free-Wilson/Fujita-Ban analysis and prediction of the analgesic potency of some 3-hydroxy- and 3-methoxy-N-alkylmorphinan-6-one opioids” (J Med Chem, 1990):

The compounds below were run against Opioid receptor (Mus musculus) (UniProt P42866+P32300+P33534).
Sequence of Opioid receptor (Mus musculus) (P32300 whole entry, looked up): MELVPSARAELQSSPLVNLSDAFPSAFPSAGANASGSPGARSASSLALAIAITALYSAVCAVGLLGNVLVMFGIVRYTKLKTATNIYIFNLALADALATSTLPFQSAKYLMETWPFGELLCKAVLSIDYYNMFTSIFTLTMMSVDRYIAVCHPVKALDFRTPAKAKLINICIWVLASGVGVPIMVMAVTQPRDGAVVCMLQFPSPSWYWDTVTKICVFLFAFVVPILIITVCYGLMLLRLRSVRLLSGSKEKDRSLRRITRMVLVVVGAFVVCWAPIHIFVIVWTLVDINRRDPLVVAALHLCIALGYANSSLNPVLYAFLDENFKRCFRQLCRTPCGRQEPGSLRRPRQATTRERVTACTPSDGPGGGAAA
Sequence of Opioid receptor (Mus musculus) (P33534 whole entry, looked up): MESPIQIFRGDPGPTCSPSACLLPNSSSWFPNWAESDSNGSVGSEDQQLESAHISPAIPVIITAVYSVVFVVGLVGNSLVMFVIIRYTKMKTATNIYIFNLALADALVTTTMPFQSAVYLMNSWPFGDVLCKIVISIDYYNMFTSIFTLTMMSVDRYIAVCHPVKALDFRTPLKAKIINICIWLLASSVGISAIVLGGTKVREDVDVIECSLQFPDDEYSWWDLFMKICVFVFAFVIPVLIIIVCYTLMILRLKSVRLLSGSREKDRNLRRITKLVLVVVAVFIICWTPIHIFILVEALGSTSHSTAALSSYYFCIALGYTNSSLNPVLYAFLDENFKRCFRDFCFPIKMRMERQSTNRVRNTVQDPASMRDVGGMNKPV
Sequence of Opioid receptor (Mus musculus) (P42866 whole entry, looked up): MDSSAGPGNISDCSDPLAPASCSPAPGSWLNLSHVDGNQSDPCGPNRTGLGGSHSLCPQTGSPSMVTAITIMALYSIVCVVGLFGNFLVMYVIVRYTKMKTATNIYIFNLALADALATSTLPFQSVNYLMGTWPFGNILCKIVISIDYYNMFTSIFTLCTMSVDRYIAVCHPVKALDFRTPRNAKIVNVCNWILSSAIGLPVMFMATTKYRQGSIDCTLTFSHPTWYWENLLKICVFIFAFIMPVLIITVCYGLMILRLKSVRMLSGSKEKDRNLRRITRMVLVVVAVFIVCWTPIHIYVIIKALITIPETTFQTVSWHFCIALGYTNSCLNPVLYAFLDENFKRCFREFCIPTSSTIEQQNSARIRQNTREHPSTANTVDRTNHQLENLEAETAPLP
Description: Analgesic Potency was tested against mice
Compound `CC[C@H]1CCC[C@]23CCN(CC4CC4)[C@H](Cc4ccc(OC)cc42)C13` (some centres undefined) has a Log AP of 5.91.
`C[C@H]1CC[C@@H]2Oc3c(O)ccc4c3[C@@]23CCN(CC2CCC2)[C@H](C4)C13` (some centres undefined) gave a Log AP of 6.41.
Compound `Oc1ccc2c(c1)[C@@]13CCCC[C@H]1[C@@H](C2)N(CC1CC1)CC3` has a Log AP of 5.16.
`C=C1C[C@H](C)[C@H]2[C@H]3Cc4ccc(O)cc4[C@@]2(CCN3CC2CCC2)C1` gave a Log AP of 6.07.
`C[C@H]1CCC[C@]23CCN(C)[C@H](Cc4ccc(O)cc42)[C@H]13` gave a Log AP of 5.12.
`COc1ccc2c(c1)[C@@]13CCCCC1[C@@H](C2)N(CC1CCC1)CC3` (some centres undefined) showed a Log AP of 6.09.
`CN1CC[C@]23CCCCC2C1Cc1ccc(O)cc13` (some centres undefined) was tested, and the Log AP was 5.99.
In the case of `COc1ccc2c(c1)[C@@]13CCC[C@H](C)C1[C@@H](C2)N(C)CC3` (some centres undefined), the Log AP is reported as 5.87.
`O=C1CC[C@@H]2[C@H]3Cc4ccc(O)cc4[C@@]2(CCN3CC2CCC2)C1` showed a Log AP of 5.92.
`CC[C@H]1CCC[C@]23CCN(CC4CCC4)[C@H](Cc4ccc(OC)cc42)C13` (some centres undefined) was tested, and the Log AP was 5.47.
For `COc1ccc2c(c1)[C@@]13CCC(C)CC1[C@@H](C2)N(CC1CC1)CC3` (some centres undefined), the Log AP was 5.97.
`CC[C@H]1C(C)CC[C@]23CCN(CC4CCC4)[C@H](Cc4ccc(OC)cc42)C13` (some centres undefined) was tested, and the Log AP was 5.04.
Compound `Oc1ccc2c(c1)[C@@]13CCCC[C@H]1[C@@H](C2)N(CC1CCC1)CC3` has a Log AP of 6.45.
For `C[C@H]1CCC[C@]23CCN(CC4CCC4)[C@H](Cc4ccc(O)cc42)C13` (stereo in doubt; 41), the Log AP was 6.6.
Work on `COc1ccc2c(c1)[C@]13CCN(C)[C@H](C2)[C@@H]1C=C(C)C(=O)C3` yielded a Log AP of 5.67.
For `COc1ccc2c(c1)[C@@]13CCCCC1[C@@H](C2)N(CC1CC1)CC3` (some centres undefined), the Log AP was 6.87.
`COc1ccc2c3c1OC1CC[C@H](C)C4[C@@H](C2)N(CC2CC2)CC[C@]314` (some centres undefined) gave a Log AP of 5.16.
Compound `COc1ccc2c(c1)[C@@]13CCC[C@H](C)C1[C@@H](C2)N(CC1CCC1)CC3` (some centres undefined) has a Log AP of 5.99.
Work on `C[C@H]1CCC[C@]23CCN(C)[C@H](Cc4ccc(O)cc42)C13` (some centres undefined) yielded a Log AP of 5.32.
`C[C@H]1CCC[C@]23CCN(CC4CC4)[C@H](Cc4ccc(O)cc42)C13` (some centres undefined) was tested, and the Log AP was 4.81.
With `COc1ccc2c3c1O[C@H]1CC(C)CC4[C@@H](C2)N(C)CC[C@@]341` (some centres undefined) the Log AP was 5.71.
Work on `CC1CC[C@]23CCN(C)[C@H](Cc4ccc(O)cc42)C3C1` (some centres undefined) yielded a Log AP of 5.56.
In the case of `Oc1ccc2c3c1O[C@H]1CCCC4[C@@H](C2)N(CC2CC2)CC[C@@]341` (some centres undefined), the Log AP is reported as 5.37.
`C[C@H]1CC(=O)C[C@]23CCN(C)[C@H](Cc4ccc(O)cc42)[C@@H]13` showed a Log AP of 6.32.
For `CC[C@H]1CCC2Oc3c(OC)ccc4c3[C@@]23CCN(C)[C@H](C4)C13` (some centres undefined), the Log AP was 5.72.
With `C[C@H]1CC(=O)C[C@]23CCN(CC4CCC4)[C@H](Cc4ccc(O)cc42)[C@@H]13` the Log AP was 5.75.
Compound `Oc1ccc2c3c1O[C@H]1CCCC4[C@@H](C2)N(CC2CCC2)CC[C@@]341` (some centres undefined) has a Log AP of 6.49.
With `CC1CC[C@]23CCN(CC4CCC4)[C@H](Cc4ccc(O)cc42)C3C1` (some centres undefined) the Log AP was 6.71.
In the case of `CC[C@H]1C(C)CC[C@]23CCN(C)[C@H](Cc4ccc(OC)cc42)C13` (some centres undefined), the Log AP is reported as 5.69.
With `CCC[C@H]1CC[C@@H]2Oc3c(OC)ccc4c3[C@@]23CCN(C)[C@H](C4)C13` (some centres undefined) the Log AP was 4.87.
In the case of `COc1ccc2c(c1)[C@@]13CCC(C)[C@H](C)C1[C@@H](C2)N(C)CC3` (some centres undefined), the Log AP is reported as 5.95.
`CC[C@H]1CC[C@@H]2Oc3c(OC)ccc4c3[C@@]23CCN(CC2CC2)[C@H](C4)C13` (some centres undefined) gave a Log AP of 5.18.
Work on `COc1ccc2c(c1)[C@@]13CCCC[C@H]1[C@@H](C2)N(C)CC3` yielded a Log AP of 5.84.
In the case of `CCC[C@H]1CCC[C@]23CCN(CC4CC4)[C@H](Cc4ccc(OC)cc42)C13` (some centres undefined), the Log AP is reported as 4.76.
Compound `CC1CC[C@]23CCN(CC4CCC4)[C@H](Cc4ccc(O)cc42)C3[C@H]1C` (stereo in doubt; 40) has a Log AP of 6.23.
In the case of `COc1ccc2c(c1)[C@@]13CCC(C)[C@H](C)C1[C@@H](C2)N(CC1CC1)CC3` (some centres undefined), the Log AP is reported as 6.15.
Work on `CC[C@H]1C(C)CC[C@]23CCN(CC4CCC4)[C@H](Cc4ccc(O)cc42)C13` (some centres undefined) yielded a Log AP of 5.82.
In the case of `COc1ccc2c(c1)[C@@]13CCC[C@H](C)C1[C@@H](C2)N(CC1CC1)CC3` (some centres undefined), the Log AP is reported as 6.59.
With `CC1CC[C@]23CCN(CC4CCC4)[C@H](Cc4ccc(O)cc42)C3[C@H]1C` (stereo in doubt; 20) the Log AP was 6.95.
With `COc1ccc2c(c1)[C@]13CCN(CC4CCC4)[C@H](C2)[C@H]1CC(C)C(=O)C3` (some centres undefined) the Log AP was 4.68.
For `COc1ccc2c3c1O[C@H]1CCCC4[C@@H](C2)N(CC2CCC2)CC[C@@]341` (some centres undefined), the Log AP was 5.58.
`COc1ccc2c3c1OC1CC[C@H](C)C4[C@@H](C2)N(C)CC[C@]314` (some centres undefined) was tested, and the Log AP was 5.45.
For `C[C@H]1CCC[C@]23CCN(CC4CCC4)[C@H](Cc4ccc(O)cc42)C13` (stereo in doubt; 46), the Log AP was 6.41.
`COc1ccc2c(c1)[C@@]13CCC(C)CC1[C@@H](C2)N(CC1CCC1)CC3` (some centres undefined) showed a Log AP of 5.16.
Work on `CN1CC[C@]23c4c5ccc(O)c4O[C@H]2CCCC3[C@H]1C5` (some centres undefined) yielded a Log AP of 5.95.
In the case of `CC[C@H]1CCC[C@]23CCN(C)[C@H](Cc4ccc(OC)cc42)C13` (some centres undefined), the Log AP is reported as 5.93.
`COc1ccc2c3c1O[C@H]1CCCC4[C@@H](C2)N(CC2CC2)CC[C@@]341` (some centres undefined) gave a Log AP of 6.2.
In the case of `COc1ccc2c3c1OC1CC[C@H](C)C4[C@@H](C2)N(CC2CCC2)CC[C@]314` (some centres undefined), the Log AP is reported as 5.26.
With `C[C@H]1CCC2Oc3c(O)ccc4c3[C@@]23CCN(C)[C@H](C4)C13` (some centres undefined) the Log AP was 6.03.
Work on `COc1ccc2c3c1O[C@H]1CCCC4[C@@H](C2)N(C)CC[C@@]341` (some centres undefined) yielded a Log AP of 5.54.
In the case of `CCC[C@H]1CCC[C@]23CCN(C)[C@H](Cc4ccc(OC)cc42)C13` (some centres undefined), the Log AP is reported as 4.9.
With `COc1ccc2c(c1)[C@@]13CCC(C)[C@H](C)C1[C@@H](C2)N(CC1CCC1)CC3` (some centres undefined) the Log AP was 5.25.
For `CC1CC[C@]23CCN(CC4CC4)[C@H](Cc4ccc(O)cc42)C3C1` (some centres undefined), the Log AP was 5.24.
With `COc1ccc2c(c1)[C@]13CCN(C)[C@H](C2)[C@@H]1C=CC(=O)C3` the Log AP was 6.45.
